Laboratory results: paper PMC12040169 (PLOS Biology, 2025)

assay: in vitro; settings: human, hela cells, % viability

Row | Structure (SMILES) | viability at 28.5 h, 10 µM [%]
1 | Cc1c(NC(=O)Nc2ccc(Cl)cc2)sc(=S)n1C [CBK027495] | 93.4
2 | O=C(CN1C(=O)S/C(=C\c2ccc(OCc3ccccc3F)cc2)C1=O)c1ccc(Cl)cc1 [CBK264632] | 97.6
3 | CN(C)CCN(Cc1ccccc1)C(=O)NCc1ccc(Cl)cc1 [CBK155106] | 94.2
4 | COc1ccc(-c2ccc(C(=O)NCCN3CCOCC3)c(N(C)C(C)=O)n2)cc1 [CBK076545] | 102
5 | Cc1cc(NCn2nnc3ccccc32)ccc1Br [CBK057031] | 88.2
6 | CS(=O)(=O)N(CC(=O)N1CCN(C(c2ccccc2)c2ccccc2)CC1)c1cccc(F)c1 [CBK266330] | 105
7 | O=C(O)CCN1CCN(Cc2ccc(Cl)cc2)CC1 [CBK287271] | 87.5
8 | Cc1ccc(NC(=O)c2cnc3scc(C)n3c2=O)cc1C [CBK287461] | 108
9 | CCn1cnc2cc(NC(=O)c3ccc(C)n(C)c3=O)ccc21 [CBK281402] | 106
10 | CCCNc1nccnc1-c1ccccc1F [CBK037231] | 104
11 | C/C(=N\N=C1\N=C(O)C(CC(=O)NCc2ccccc2)S1)c1ccco1 (stereo not shown) [CBK263698] | 89.9
12 | COCCN(CCOC)C(=O)Nc1ccc(F)c(NC(C)=O)c1 [CBK307705] | 98.2
13 | NCCOc1ncccc1OCc1ccccc1 [CBK036305] | 90.7
14 | CC(C)c1ccc(NC(=O)NC(=O)C2CCN(CCOc3ccc4ccccc4c3)CC2)c(C(C)C)c1 [CBK034883] | 96
15 | COc1ccc(NC(=O)Nc2ccccc2C(N)=O)cc1OC [CBK267061] | 94.1
16 | O=C(O)CCc1nc(-c2ccncc2)no1 [CBK288558] | 98.7
17 | CC(=O)NC(c1nccs1)C1CCCN(CC2CCCCC2)C1 (stereo not shown) [CBK285152] | 95.1
18 | Cc1cc(CSc2ccccc2)ccc1NC(=O)/C=C/c1cccc([N+](=O)[O-])c1 [CBK264687] | 111
19 | C=CCn1c(Cc2csc(NC(=O)c3ccc(OC(F)F)cc3)n2)n[nH]c1=S [CBK295338] | 100
20 | CC(C)(C)c1ccc(NC(=O)C(=O)NCCCn2ccnc2)cc1 [CBK267358] | 108
21 | Nc1cccc(-c2cc(N3CCCC3CO)n3nccc3n2)c1 (stereo not shown) [CBK037049] | 88.6
22 | c1csc(-c2cn3ccnc3c(NCC3CC3)n2)c1 [CBK066754] | 93.7

Row | Structure (SMILES) | viability at 28.5 h, 10 µM [%]
23 | Cc1cccc(C)c1OCc1nnc(SCc2ccc([N+](=O)[O-])cc2)n1C [CBK269737] | 105
24 | O=C(Nc1ccc2ncsc2c1)C1COc2ccccc2O1 (stereo not shown) [CBK287750] | 95.6
25 | Cc1ccccc1-n1ncc2c1ncn1nc(-c3ccccc3)nc21 [CBK287797] | 94.3
26 | Cc1ccc2c(c1)OC1(CCN(C(=O)c3c(-c4ccccc4)nc4ccccn34)CC1)CC2=O [CBK167871] | 92.9
27 | O=C(Nc1ccc(NC(=O)c2cc3ccccc3o2)cc1)c1ccc(-c2cccc([N+](=O)[O-])c2)o1 [CBK268579] | 86.8
28 | COc1ccc(C2(NCc3ccc4c(c3)n(C)c(=O)n4C)CC2)cc1 [CBK282836] | 103
29 | N#C/C(=C\c1ccc(O)cc1)c1nc(-c2ccc3c(c2)OCO3)cs1 [CBK262370] | 96.8
30 | Cc1cc2nc(-c3ccc(C(=O)O)cc3)[nH]c2cc1C [CBK096054] | 91.6
31 | CSc1cccc(CN2C[C@H]3CN(C(=O)C4CCC4)C[C@@]3(C(=O)O)C2)c1 [CBK307645] | 88.4
32 | COCc1cccc(-c2nccnc2OC2CCCCC2)c1 [CBK106959] | 87.5
33 | O=S(=O)(Oc1ccc2ccccc2c1)c1ccc2c(c1)Cc1cc(S(=O)(=O)Oc3ccc4ccccc4c3)ccc1-2 [CBK262385] | 105
34 | COc1ccc(-c2cc(C(=O)NCC(O)CO)cnc2-c2ccc(Cl)cc2)cn1 (stereo not shown) [CBK036645] | 94
35 | CCOC(=O)CN1CCN(c2nccnc2Oc2ccc(OC)c(OC)c2)CC1 [CBK083052T] | 103
36 | O=C(NC1CCCC1)c1ccc(-c2cnc3[nH]c(=O)n(CCCN4CCOCC4)c3n2)cc1 [CBK064829] | 102
37 | COc1ccc(/C=N/Nc2ccc([N+](=O)[O-])cc2)c(C(=O)O)c1OC [CBK261984] | 90.5
38 | Nc1nc(N)c2nc(C3OCCO3)cnc2n1 [CBK027115] | 114
39 | Cc1ccc(C2(O)CC3CCC(C2)N3C(=O)c2ccncc2)cc1 (stereo not shown) [CBK284609] | 100
40 | COc1ccccc1CNC(=O)c1cnc2scc(C)n2c1=O [CBK287293] | 102
41 | CC1CCc2nn(CCNC(=O)c3cccs3)c(=O)cc2C1 (stereo not shown) [CBK284483] | 97.4
42 | CS(=O)(=O)c1ccc(CNc2nccnc2-c2ccccc2F)cc1 [CBK036836] | 96.4
43 | CC(C)CC(=O)N1C[C@H]2CCCN(Cc3ccsc3)[C@H]2C1 [CBK285290] | 102
44 | Cc1ccccc1Cn1c(CN2CCCCC2C)nc2c1c(=O)n(C)c(=O)n2C (stereo not shown) [CBK269199] | 91.2

Row | Structure (SMILES) | viability at 28.5 h, 10 µM [%]
45 | O=C(Cc1c[nH]c2ccccc12)N1CCC2(CCCN(Cc3cc(=O)[nH]c(=O)[nH]3)C2)C1 (stereo not shown) [CBK132049] | 102
46 | NS(=O)(=O)c1ccc(NC(=S)NNC(=S)Nc2ccc(F)cc2F)cc1 [CBK267102] | 93.3
47 | CN(C(=O)N1CCC(C(=O)NC(c2ccccc2)c2ccco2)CC1)c1ccccc1 (stereo not shown) [CBK059877] | 89
48 | CC(NC(=O)N1CCCC(CO)C1)c1ccccc1 (stereo not shown) [CBK156066] | 87.1
49 | CC(C)C(=O)N1CC2(CCN(CC3COc4ccccc4O3)CC2)c2ccccc21 (stereo not shown) [CBK143946] | 98.2
50 | O=C(NCCn1cc[nH]c1=O)c1cnc(-c2ccc(Cl)cc2)c(-c2ccc(O)cc2)c1 [CBK036766] | 92
51 | O=C1CO[C@H]2CN(S(=O)(=O)c3ccccc3)C[C@H]2N1c1ccccc1 [CBK289236] | 93.7
52 | Cc1cccc(-c2ncc(NC(=O)c3ccccn3)nc2-c2ccc(N)cc2)c1 [CBK036694] | 93.3
53 | Cc1csc2ncc(C(=O)Nc3cc(C(F)(F)F)ccc3Cl)c(=O)n12 [CBK287465] | 94.4
54 | OC[C@H]1CCCN1c1nc(Br)cn2ccnc12 [CBK085496] | 101
55 | Nc1ncc(-c2cc(C(F)(F)F)cc(C(F)(F)F)c2)nc1NC1CCC(O)CC1 (stereo not shown) [CBK063808] | 92
56 | O=C(NC1CC1)N1CCN(CCCOc2ccc(F)cc2)CC1 [CBK025077C] | 111
57 | Cn1c(=O)oc2cc(S(=O)(=O)NCc3ccccc3)ccc21 [CBK267568] | 90.8
58 | Cc1cccnc1NC(=O)COc1ccc(Cl)cc1Cl [CBK262154] | 86.5
59 | CC(C)c1ccc(C(=O)NC2CCN(CC(F)(F)F)C2=O)nc1 (stereo not shown) [CBK304089] | 108
60 | Cc1ccnc(SCC(N)=O)n1 [CBK028874] | 96.1
61 | COC(=O)c1cn(-c2ccc(Cl)cc2)c(=O)c2ccccc12 [CBK116489] | 101
62 | O=C(N[C@H]1C2CCCCC2[C@@H]1c1ccccc1)c1cncnc1 (stereo partly shown) [CBK282949] | 94.3
63 | CC(=O)Nc1cccc(-c2cncc(NCc3ccco3)n2)c1 [CBK065290] | 100
64 | COC(=O)c1ccccc1NC(=O)CCSc1ccc(Cl)cc1 [CBK263817] | 109
65 | O=C(O)Cc1sc(-c2ccc(Cl)cc2)nc1O [CBK067730] | 93.1
66 | Cc1cn2c(=O)c3ncn([C@H]4C[C@@H](O)[C@@H](CO)O4)c3nc2[nH]1 [CBK201320] | 86.6

Row | Structure (SMILES) | viability at 28.5 h, 10 µM [%]
67 | COc1cc(CNC2CCCc3c2cnn3C)c(O)c(C(C)(C)C)c1 (stereo not shown) [CBK304716] | 84.4
68 | FC(F)(F)C1(NC2(C(Cl)(Cl)Cl)Oc3ccccc3O2)Oc2ccccc2O1 [CBK265544] | 90.5
69 | CN(C(=O)C1CC1)C1CCN(c2ncnc3ccccc23)CC1 [CBK304946] | 80
70 | Cc1ccc2[nH]c(Cc3ccc(NC(=O)CCc4nc5ccccc5[nH]4)cc3)nc2c1 [CBK285801] | 87
71 | Cc1nn(C)c(Cl)c1S(=O)(=O)Nc1ccc2cc(Br)cnc2n1 [CBK073892] | 78.3
72 | OCc1ccccc1-c1nccnc1NCc1ccco1 [CBK037098] | 94.5
73 | COc1ccccc1CN(C(=O)Nc1ccc(S(C)(=O)=O)cc1)C1CC1 [CBK305787] | 90.9
74 | Nc1nc2ccccc2c(=O)[nH]1 [CBK028707] | 101
75 | CC(=O)N1CCc2c([nH]c3ccccc23)[C@@]12CCN(Cc1ccc(F)cc1)C2 [CBK074955] | 83
76 | Cc1cc(CNS(=O)(=O)N2CCCC2)c2[nH]c(C)c(C)c2c1 [CBK282772] | 95.1
77 | Cc1cc(C)cc(NC(=O)Cn2cnc3c(sc4ccccc43)c2=O)c1 [CBK287807] | 82.5
78 | O=C(COc1ccc([N+](=O)[O-])cc1)Nc1ccc(CN2CCCCC2)cc1 [CBK266204] | 118
79 | C=CCN1C(=O)C2(Nc3ccccc3C(=O)N2c2ccc(Cl)cc2)c2ccccc21 (stereo not shown) [CBK093474] | 106
80 | CC(C)NC(=O)Nc1ccc(C(=O)N(CCC#N)Cc2ccco2)cc1 [CBK305999] | 82.3
81 | COCC(=O)N1CCN2C(=O)c3ccc(Cl)cc3NC(=O)[C@H]2C1 [CBK289588] | 84.6
82 | CC(=O)N1CCC[C@H]2NC(=O)CNC(=O)C3(C/C=C/C[C@H]21)CCN(c1ncccn1)CC3 [CBK292042] | 110
83 | O=C1COc2ccccc2CCCC[C@@H]2CN(C(=O)Cn3ccc(=O)[nH]c3=O)CC[C@H]2N1 [CBK292048] | 102
84 | COc1ccccc1C(NC(=O)C1CCN(C(=O)OC(C)C)CC1)c1ccccn1 (stereo not shown) [CBK059649] | 111
85 | Cc1nc2c(c(N3CCN(c4ccc(O)cc4)CC3)n1)CN(Cc1ccccc1)CC2 [CBK286177] | 90.2
86 | CSCCC(=O)Nc1cccc2[nH]ccc12 [CBK159655] | 105
87 | O=S(=O)(Nc1ccc2cn[nH]c2c1)c1ccc(-c2ccon2)s1 [CBK067157] | 98.3

same assay, conditions: human, hela cells, % viability, bulk resorufin, single well

Row | Structure (SMILES) | viability at 28.5 h, 10 µM [%]
88 | c1cc2c(cc1CCNCc1ccc3c(c1)OCO3)OCO2 [CBK074501G] | 98.9
